In patent US4087416A, “New heptapeptides and methods for their production” (Parke, Davis & Company, priority 1976, dated 1978):

System: LRF (luteinizing hormone releasing factor) induced luteinizing hormone (LH) release
Assay: In vitro LRF antagonist test in rat anterior pituitary cell cultures
Assay type: cell-based
Source text: Heptapeptides of this invention were screened for LRF antagonist activity in vitro using rat anterior pituitary cell cultures as described by Vale et. al. [Endocrinology, 91, 562 (1972)]. The inhibition of LRF (luteinizing hormone releasing factor) induced luteinizing hormone (LH) release into the culture medium is the endpoint in this in vitro bioassay.

[1] = Molar Conc. 1×10^-6, first experiment (LRF 5×10^-10)
[2] = Molar Conc. 1×10^-7, first experiment (LRF 5×10^-10)
[3] = Molar Conc. 1×10^-8, first experiment (LRF 5×10^-10)
[4] = Molar Conc. 3.5×10^-7, first experiment (LRF 5×10^-10)
[5] = Molar Conc. 3.5×10^-8, first experiment (LRF 5×10^-10)
[6] = Molar Conc. 1×10^-7, second experiment (LRF 3.5×10^-10)
[7] = Molar Conc. 2×10^-7, second experiment (LRF 3.5×10^-10)
[8] = Molar Conc. 3.5×10^-7, second experiment (LRF 3.5×10^-10)

Question: How did the “LH Value” (LRF alone, Molar Conc. 3.5×10^-10, second experiment) turn out when “LRF Control: luteinizing hormone releasing factor, also referred to as luteinizing hormone releasing hormone; stimulates the secretion of luteinizing hormone (QHWSYGLRPG; Gonadoliberin-1; UniProt P01148 24-33, looked up) [reference compound]” was run?
Answer: The value was 40.01 ng/mL.

Question: What about the “LH Value” (LRF alone, Molar Conc. 5×10^-10, first experiment) of the same substance?
Answer: Its value is 38.48 ng/mL.

Question: Which “% LH Release Inhibition” value [1] does the source give for “N^α -t-Butoxycarbonyl-L-prolyl-N^im -benzyl-L-histidyl-N^im -benzyl L-histidyl-O-benzyl-L-seryl-O-benzyl-L-tyrosyl-L-tryptophyl-D-alanine N-ethylamide” here?
Answer: Its value is 101%.

Question: And the “LH Value” [1]?
Answer: Its value is 11.36 ng/mL.

Question: What about the “% LH Release Inhibition” value [2] of the same substance?
Answer: Its value is 77%.

Question: What about the “LH Value” [2] of the same substance?
Answer: Its value is 17.83 ng/mL.

Question: What about the “% LH Release Inhibition” value [3] of the same substance?
Answer: The value was 24%.

Question: And the “LH Value” [3]?
Answer: Its value is 31.92 ng/mL.

Question: And the “% LH Release Inhibition” value [4]?
Answer: The value was 99%.

Question: What about the “LH Value” [4] of the same substance?
Answer: The value was 11.90 ng/mL.

Question: And the “% LH Release Inhibition” value [5]?
Answer: Its value is 55%.

Question: And the “LH Value” [5]?
Answer: Its value is 23.65 ng/mL.

Question: How did the “% LH Release Inhibition” value [6] turn out when “N^α -t-Butoxycarbonyl-L-prolyl-N^im -benzyl-L-histidyl-N^im -benzyl-L-histidyl-O-benzyl-L-seryl-O-benzyl-L-tyrosyl-L-tryptophyl-D-alanine methyl ester” was run?
Answer: The value was 65%.

Question: What about the “LH Value” [6] of the same substance?
Answer: The value was 23.32 ng/mL.

Question: What about the “% LH Release Inhibition” value [7] of the same substance?
Answer: The value was 58%.

Question: What about the “LH Value” [7] of the same substance?
Answer: The value was 24.98 ng/mL.

Question: And the “% LH Release Inhibition” value [8]?
Answer: Its value is 74%.

Question: And the “LH Value” [8]?
Answer: Its value is 20.80 ng/mL.
